Test results from ChEMBL document CHEMBL1212758 (Antimicrob Agents Chemother, 2010).

Columns and labels:
Type in all cases: functional
Human alphaherpesvirus 2 = test: Ratio of acyclovir EC50 to compound EC50 for HSV 2 infected in african green monkey Vero cells
Human alphaherpesvirus 1 = test: Ratio of acyclovir EC50 to compound EC50 for HSV1 infected in african green monkey Vero cells
[1] = tested on: Macacine alphaherpesvirus 1; test: Ratio of acyclovir EC50 to compound EC50 for Macacine herpesvirus 1 isolate MJ3 infected in african green monkey Vero cells
[2] = tested on: Macacine alphaherpesvirus 1; test: Ratio of acyclovir EC50 to compound EC50 for Macacine herpesvirus 1 isolate MP1 infected in african green monkey Vero cells
[3] = tested on: Macacine alphaherpesvirus 1; test: Ratio of acyclovir EC50 to compound EC50 for Macacine herpesvirus 1 isolate MJ2 infected in african green monkey Vero cells
[4] = tested on: Macacine alphaherpesvirus 1; test: Ratio of acyclovir EC50 to compound EC50 for Macacine herpesvirus 1 isolate MJ1 infected in african green monkey Vero cells
[5] = tested on: Macacine alphaherpesvirus 1; test: Ratio of acyclovir EC50 to compound EC50 for Macacine herpesvirus 1 isolate MC2 infected in african green monkey Vero cells
[6] = tested on: Macacine alphaherpesvirus 1; test: Ratio of acyclovir EC50 to compound EC50 for Macacine herpesvirus 1 isolate MC1 infected in african green monkey Vero cells
[7] = tested on: Macacine alphaherpesvirus 1; test: Ratio of acyclovir EC50 to compound EC50 for Macacine herpesvirus 1 isolate A6 infected in african green monkey Vero cells
[8] = tested on: Macacine alphaherpesvirus 1; test: Ratio of acyclovir EC50 to compound EC50 for Macacine herpesvirus 1 isolate A5 infected in african green monkey Vero cells
[9] = tested on: Macacine alphaherpesvirus 1; test: Ratio of acyclovir EC50 to compound EC50 for Macacine herpesvirus 1 isolate A4 infected in african green monkey Vero cells
[10] = tested on: Macacine alphaherpesvirus 1; test: Ratio of acyclovir EC50 to compound EC50 for Macacine herpesvirus 1 isolate A3 infected in african green monkey Vero cells
[11] = tested on: Macacine alphaherpesvirus 1; test: Ratio of acyclovir EC50 to compound EC50 for Macacine herpesvirus 1 isolate A2 infected in african green monkey Vero cells
[12] = tested on: Macacine alphaherpesvirus 1; test: Ratio of acyclovir EC50 to compound EC50 for Macacine herpesvirus 1 isolate A1 infected in african green monkey Vero cells
[13] = tested on: Macacine alphaherpesvirus 1; test: Ratio of acyclovir EC50 to compound EC50 for Macacine herpesvirus 1 isolate MR1 infected in african green monkey Vero cells
[14] = tested on: Macacine alphaherpesvirus 1; test: Ratio of acyclovir EC50 to compound EC50 for Macacine herpesvirus 1 isolate MR2 infected in african green monkey Vero cells
[15] = tested on: Macacine alphaherpesvirus 1; test: Ratio of acyclovir EC50 to compound EC50 for Macacine herpesvirus 1 isolate MR11 infected in african green monkey Vero cells
[16] = tested on: Macacine alphaherpesvirus 1; test: Ratio of acyclovir EC50 to compound EC50 for Macacine herpesvirus 1 isolate MR10 infected in african green monkey Vero cells
[17] = tested on: Macacine alphaherpesvirus 1; test: Ratio of acyclovir EC50 to compound EC50 for Macacine herpesvirus 1 isolate MR9 infected in african green monkey Vero cells
[18] = tested on: Macacine alphaherpesvirus 1; test: Ratio of acyclovir EC50 to compound EC50 for Macacine herpesvirus 1 isolate MR8 infected in african green monkey Vero cells
[19] = tested on: Macacine alphaherpesvirus 1; test: Ratio of acyclovir EC50 to compound EC50 for Macacine herpesvirus 1 isolate MR7 infected in african green monkey Vero cells
[20] = tested on: Macacine alphaherpesvirus 1; test: Ratio of acyclovir EC50 to compound EC50 for Macacine herpesvirus 1 isolate MR6 infected in african green monkey Vero cells
[21] = tested on: Macacine alphaherpesvirus 1; test: Ratio of acyclovir EC50 to compound EC50 for Macacine herpesvirus 1 isolate MR5 infected in african green monkey Vero cells
[22] = tested on: Macacine alphaherpesvirus 1; test: Ratio of acyclovir EC50 to compound EC50 for Macacine herpesvirus 1 isolate MR4 infected in african green monkey Vero cells
[23] = tested on: Macacine alphaherpesvirus 1; test: Ratio of acyclovir EC50 to compound EC50 for Macacine herpesvirus 1 isolate MR3 infected in african green monkey Vero cells
[24] = tested on: Macacine alphaherpesvirus 1; test: Ratio of acyclovir EC50 to compound EC50 for Macacine herpesvirus 1 isolate E2490 infected in african green monkey Vero cells

**Q.** For `Nc1nc(=O)n([C@@H]2O[C@H](CO)[C@@H](O)[C@@H]2F)cc1Br`, which “Ratio EC50” value (Human alphaherpesvirus 2) is on record?
**A.** The value was 10.

**Q.** And the “Ratio EC50” value (Human alphaherpesvirus 1)?
**A.** Its value is 10.

**Q.** And the “Ratio EC50” value [1]?
**A.** Its value is 10.

**Q.** What about the “Ratio EC50” value [2] of the same compound?
**A.** Its value is 10.

**Q.** And the “Ratio EC50” value [3]?
**A.** Its value is 10.

**Q.** What about the “Ratio EC50” value [4] of the same compound?
**A.** Its value is 10.

**Q.** And the “Ratio EC50” value [5]?
**A.** Its value is 10.

**Q.** And the “Ratio EC50” value [6]?
**A.** The value was 10.

**Q.** What about the “Ratio EC50” value [7] of the same compound?
**A.** Its value is 10.

**Q.** And the “Ratio EC50” value [8]?
**A.** Its value is 10.

**Q.** What about the “Ratio EC50” value [9] of the same compound?
**A.** Its value is 10.

**Q.** What about the “Ratio EC50” value [10] of the same compound?
**A.** The value was 10.

**Q.** And the “Ratio EC50” value [11]?
**A.** Its value is 10.

**Q.** And the “Ratio EC50” value [12]?
**A.** The value was 10.

**Q.** What about the “Ratio EC50” value [13] of the same compound?
**A.** The value was 10.

**Q.** And the “Ratio EC50” value [14]?
**A.** Its value is 10.

**Q.** And the “Ratio EC50” value [15]?
**A.** The value was 10.

**Q.** And the “Ratio EC50” value [16]?
**A.** The value was 10.

**Q.** What about the “Ratio EC50” value [17] of the same compound?
**A.** The value was 10.

**Q.** What about the “Ratio EC50” value [18] of the same compound?
**A.** The value was 10.

**Q.** And the “Ratio EC50” value [19]?
**A.** Its value is 10.

**Q.** And the “Ratio EC50” value [20]?
**A.** The value was 10.

**Q.** What about the “Ratio EC50” value [21] of the same compound?
**A.** Its value is 10.

**Q.** And the “Ratio EC50” value [22]?
**A.** The value was 10.

**Q.** What about the “Ratio EC50” value [23] of the same compound?
**A.** The value was 10.

**Q.** What about the “Ratio EC50” value [24] of the same compound?
**A.** Its value is 10.

**Q.** Which results are given for `Cc1cn([C@@H]2O[C@H](CO)[C@@H](O)[C@@H]2F)c(=O)nc1N`?
**A.** Ratio EC50 (Human alphaherpesvirus 2): 10; Ratio EC50 (Human alphaherpesvirus 1): 10; Ratio EC50 [1]: 10; Ratio EC50 [2]: 10; Ratio EC50 [3]: 10; Ratio EC50 [4]: 10; Ratio EC50 [5]: 10; Ratio EC50 [6]: 10; Ratio EC50 [7]: 10; Ratio EC50 [8]: 10; Ratio EC50 [9]: 10; Ratio EC50 [10]: 10; Ratio EC50 [11]: 10; Ratio EC50 [12]: 10; Ratio EC50 [13]: 10; Ratio EC50 [14]: 10; Ratio EC50 [15]: 10; Ratio EC50 [16]: 10; Ratio EC50 [17]: 10; Ratio EC50 [18]: 10; Ratio EC50 [19]: 10; Ratio EC50 [20]: 10; Ratio EC50 [21]: 10; Ratio EC50 [22]: 10; Ratio EC50 [23]: 10; Ratio EC50 [24]: 10

**Q.** With `CCc1cn([C@H]2O[C@@H](CO)[C@H](O)[C@H]2F)c(=O)[nH]c1=O` (single isomer, unassigned) as the compound, how does the “Ratio EC50” value (Human alphaherpesvirus 2) read?
**A.** Its value is 100.

**Q.** And the “Ratio EC50” value (Human alphaherpesvirus 1)?
**A.** Its value is 100.

**Q.** And the “Ratio EC50” value [1]?
**A.** Its value is 100.

**Q.** What about the “Ratio EC50” value [2] of the same compound?
**A.** Its value is 100.

**Q.** And the “Ratio EC50” value [3]?
**A.** Its value is 100.

**Q.** What about the “Ratio EC50” value [4] of the same compound?
**A.** Its value is 100.

**Q.** And the “Ratio EC50” value [5]?
**A.** The value was 100.

**Q.** What about the “Ratio EC50” value [6] of the same compound?
**A.** The value was 100.

**Q.** And the “Ratio EC50” value [7]?
**A.** The value was 100.

**Q.** What about the “Ratio EC50” value [8] of the same compound?
**A.** Its value is 100.

**Q.** And the “Ratio EC50” value [9]?
**A.** The value was 100.

**Q.** What about the “Ratio EC50” value [10] of the same compound?
**A.** The value was 100.

**Q.** What about the “Ratio EC50” value [11] of the same compound?
**A.** The value was 100.

**Q.** What about the “Ratio EC50” value [12] of the same compound?
**A.** The value was 100.

**Q.** What about the “Ratio EC50” value [13] of the same compound?
**A.** The value was 100.

**Q.** And the “Ratio EC50” value [14]?
**A.** The value was 100.

**Q.** And the “Ratio EC50” value [15]?
**A.** Its value is 100.

**Q.** And the “Ratio EC50” value [16]?
**A.** Its value is 100.

**Q.** What about the “Ratio EC50” value [17] of the same compound?
**A.** Its value is 100.

**Q.** And the “Ratio EC50” value [18]?
**A.** The value was 100.

**Q.** What about the “Ratio EC50” value [19] of the same compound?
**A.** The value was 100.

**Q.** What about the “Ratio EC50” value [20] of the same compound?
**A.** Its value is 100.

**Q.** And the “Ratio EC50” value [21]?
**A.** The value was 100.

**Q.** What about the “Ratio EC50” value [22] of the same compound?
**A.** The value was 100.

**Q.** And the “Ratio EC50” value [23]?
**A.** The value was 100.

**Q.** And the “Ratio EC50” value [24]?
**A.** Its value is 100.
